This passage reports IC50, inhibition and Degree of inhibition in PAI chromogenic substrate assay results from patent US5902812A, “Pharmaceutical piperazine compounds” (Xenova Limited, priority 1994, dated 1999).

Counter-ions that a name gives are not always drawn. Like-named read-outs stand apart in the source and are kept apart here.

For the experiment, the target named is PAI-1 (Homo sapiens, UniProt P05121). Description: biochemical. To be noted: for inhibition at 6.25 µM / inhibition at 12.5 µM / inhibition at 25 µM / inhibition at 50 µM / inhibition at 100 µM / inhibition at 20 µM: read-out: Degree of inhibition in PAI chromogenic substrate assay.
Chain of PAI-1 (P05121 24-402): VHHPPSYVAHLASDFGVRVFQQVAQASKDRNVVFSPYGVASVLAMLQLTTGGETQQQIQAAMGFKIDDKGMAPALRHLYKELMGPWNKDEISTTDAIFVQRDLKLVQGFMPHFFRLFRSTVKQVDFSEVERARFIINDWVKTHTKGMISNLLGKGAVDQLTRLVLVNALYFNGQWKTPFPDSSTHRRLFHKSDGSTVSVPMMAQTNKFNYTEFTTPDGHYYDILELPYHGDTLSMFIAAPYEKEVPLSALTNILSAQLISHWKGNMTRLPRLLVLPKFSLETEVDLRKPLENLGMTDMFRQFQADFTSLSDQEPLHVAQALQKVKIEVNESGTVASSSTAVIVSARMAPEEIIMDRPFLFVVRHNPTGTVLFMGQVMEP
Setting [1] is: PAI chromogenic substrate assay, read-out: IC50.
The mark [2] stands for this setting: 20 μM (third part of Table 1), 20 µM.

As for `CN(C)CCCOc1ccc(/C=c2\[nH]c(=O)/c(=C/c3cc(Cl)cc(Cl)c3)[nH]c2=O)cc1` [Compound 5372, (3Z,6Z)-3-(3,5-Dichlorobenzylidene)-6-(4-(3-dimethylaminopropoxy)benzylidene)-2,5-piperazinedione], the concentration for half-maximal inhibition (IC50) (commonly the concentration at which inhibition is half-maximal) under setting [1] stood at 11 µM.

As for `CN(C)CCOc1cccc(/C=c2\[nH]c(=O)/c(=C/c3cccc(OCCN(C)C)c3)[nH]c2=O)c1` [Compound 1947, (3Z,6Z)-3,6-Di-(3-(2-dimethylaminoethoxy)benzylidene)-2,5-piperazinedione], the inhibition (usually the drop in the measured response relative to a control, in per cent) at 6.25 µM (6.25 μM) came to 0%. In addition, the inhibition at 12.5 µM (12.5 μM) turned out to be 1%. Moreover, the inhibition at 25 µM (25 μM) came out at 1%. For the same compound, the inhibition at 50 µM (50 μM) is 1%. Moreover, the inhibition at 100 µM (100 μM) was found to be 1%.

For `CN(C)CCCOc1ccc(/C=c2\[nH]c(=O)/c(=C/c3ccc(C(N)=O)cc3)[nH]c2=O)cc1` [Compound 5246, 4-((3Z,6Z)-6-(4-(3-Dimethylaminopropoxy)benzylidene)-2,5-dioxo-3-piperazinylidene)methylbenzamide], the Degree of inhibition in PAI chromogenic substrate assay under setting [2] turned out to be 34%.

`COc1ccc(/C=c2\[nH]c(=O)/c(=C/c3ccc(OCCCN(C)C)cc3)[nH]c2=O)cc1` [Compound 5234, (3Z,6Z)-3-(4-(3-Dimethylaminopropoxy)benzylidene)-6-(4-methoxybenzylidene)-2,5-piperazinedione]: the inhibition at 100 µM (100 μM (third part of Table 1)) amounted to 10%.

In turn, `CN(C)CCCOc1ccc(/C=c2\[nH]c(=O)/c(=C/c3cc([N+](=O)[O-])cc([N+](=O)[O-])c3)[nH]c2=O)cc1` [Compound 5381, (3Z,6Z)-6-(4-(3-Dimethylaminopropoxy)benzylidene)-3-(3,5-dinitrobenzylidene)-2,5-piperazinedione] had an IC50 (IC50, PAI chromogenic substrate assay) of 15 µM.

As to `CN(C)CCCOc1ccc(/C=c2\[nH]c(=O)/c(=C/c3cccc(N4C(=O)c5ccccc5C4=O)c3)[nH]c2=O)cc1` [Compound 5255, (3Z,6Z)-6-(4-(3-Dimethylaminopropoxy)benzylidene)-3-(3-phthalimidobenzylidene)-2,5-piperazinedione], the inhibition at 20 µM (20 μM (third part of Table 1)) stood at 80%. Moreover, the inhibition at 100 µM (100 μM (third part of Table 1)) came to 33%. Further, the IC50 under setting [1] came to 15 µM.

On to `CN(C)CCOc1ccc(/C=c2\[nH]c(=O)/c(=C/c3ccccc3)[nH]c2=O)c(Cl)c1` [Compound 1951, (3Z,6Z)-3-Benzylidene-6-(2-chloro-4-(2-dimethylaminoethoxy)benzylidene)-2,5-piperazinedione], for which the Degree of inhibition in PAI chromogenic substrate assay runs as follows: (6.25 μM) 0%; (12.5 μM) 1%; (25 μM) 2%; (50 μM) 23%; (100 μM) 43%.

Consider `CN(C)CCCOc1ccc(/C=c2\[nH]c(=O)/c(=C/c3cccc(C#N)c3)[nH]c2=O)cc1` [Compound 5232, (3Z,6Z)-3-(3-Cyanobenzylidene)-6-(4-(3-dimethylaminopropoxy)benzylidene)-2,5-piperazinedione], for which the inhibition at 100 µM (100 μM (third part of Table 1)) was determined as 10%.

For the compound `CN(C)CCCOc1ccc(/C=c2\[nH]c(=O)/c(=C/c3ccc(Br)cc3)[nH]c2=O)cc1` [Compound 5360], the inhibition at 20 µM (20 μM (third part of Table 1)) was 59%. Also, under setting [1], the IC50 was determined as 3.5 µM.

`CN(C)CCCOc1ccc(/C=c2\[nH]c(=O)/c(=C/c3ccc(N)cc3)[nH]c2=O)cc1` [Compound 5260]: under setting [1], the concentration for half-maximal inhibition (IC50) was found to be 17 µM.

For the compound `CN(C)CCSCc1ccc(/C=c2\[nH]c(=O)/c(=C/c3ccccc3Br)[nH]c2=O)cc1` [Compound 5080.HCl, (3Z,6Z)-3-(2-Bromobenzylidene)-6-(4-(2-Dimethylaminoethylthiomethyl)benzylidene)-2,5-piperazinedione], the inhibition at 20 µM (20 μM (third part of Table 1)) turned out to be 10%. For the setting “50 μM (third part of Table 1)”, the inhibition at 50 µM is 48%. Under “100 μM (third part of Table 1)”, the inhibition at 100 µM was 62%.

Turning to `CC(=O)Nc1cccc(/C=c2\[nH]c(=O)/c(=C/c3ccc(OCCCN(C)C)cc3)[nH]c2=O)c1` [Compound 5256, (3Z,6Z)-3-(3-Acetamidobenzylidene)-6-(4-(3-dimethylaminopropoxy)benzylidene)-2,5-piperazinedione], the inhibition at 20 µM (20 μM (third part of Table 1)) came to 10%. The inhibition at 100 µM (100 μM (third part of Table 1)) amounted to 65%. Also, under setting [1], the IC50 was 100 µM.

For the compound `CN(C)CCCOc1ccc(/C=c2\[nH]c(=O)/c(=C/c3ccc([N+](=O)[O-])cc3)[nH]c2=O)cc1` [Compound 5228, (3Z,6Z)-3-(4-(3-dimethylaminopropoxy)benzylidene)-6-(4-nitrobenzylidene)-2,5-piperazinedione], the IC50 under setting [1] came to 1.1 µM.

`CN(C)CCCOc1ccc(/C=c2\[nH]c(=O)/c(=C/c3ccc(OCCCN(C)C)cc3)[nH]c2=O)cc1` [Compound 1955, (3Z,6Z)-3,6-Di-(4-(3-dimethylaminopropoxy)benzylidene)-2,5-piperazinedionebis hydrogen succinate (1:2)]: the Degree of inhibition in PAI chromogenic substrate assay (6.25 μM) was 0%. Besides, where the note is “12.5 μM”, the inhibition at 12.5 µM came out at 2%. The inhibition at 25 µM (25 μM) stood at 3%. Besides, under “50 μM”, the inhibition at 50 µM was determined as 2%. In addition, under “100 μM”, the inhibition at 100 µM amounted to 9%.

`CN(C)CCOc1ccccc1/C=c1\[nH]c(=O)/c(=C/c2ccccc2)[nH]c1=O` [Compound 1946, (3Z,6Z)-3-Benzylidene-6-(2-(2-dimethylaminoethoxy)benzylidene)-2,5-piperazinedione]: the Degree of inhibition in PAI chromogenic substrate assay reads like this: (12.5 μM) 1%; (25 μM) 1%; (50 μM) 1%; (100 μM) 7%.

The compound `CN(C)CCOc1ccc(/C=c2\[nH]c(=O)/c(=C/c3ccccc3)[nH]c2=O)c(Cl)c1.Cl` [Compound 1960, (3Z,6Z)-6-Benzylidene-3-(2-chloro-4-(2-dimethylaminoethoxy)benzylidene)-2,5-piperazinedione, hydrochloride] showed a Degree of inhibition in PAI chromogenic substrate assay (6.25 μM) of 56%, a Degree of inhibition in PAI chromogenic substrate assay (12.5 μM) of 63%, a Degree of inhibition in PAI chromogenic substrate assay (25 μM) of 67% and a Degree of inhibition in PAI chromogenic substrate assay (50 μM) of 64%. Where the note is “100 μM”, the inhibition at 100 µM was 32%.

`CN(C)CCCOc1ccc(/C=c2\[nH]c(=O)/c(=C/c3ccc(F)cc3)[nH]c2=O)cc1` [Compound 5365, (3Z,6Z)-3-(4-(3-Dimethylaminopropoxy)benzylidene)-6-(4-fluorobenzylidene)-2,5-piperazinedione]: under setting [1], the IC50 is 6.5 µM.

As for `COc1ccc(/C=c2\[nH]c(=O)/c(=C/c3ccc(OC(=O)CC(C)(C)C)cc3)[nH]c2=O)cc1` [Compound 1885, (3Z,6Z)-3-(4-(3,3-dimethylbutanoyloxy)benzylidene)-6-(4-methoxybenzylidene)-2,5-piperazinedione], the inhibition at 6.25 µM (6.25 μM) amounted to 0%. For the setting “12.5 μM”, the inhibition at 12.5 µM worked out at 0%. Under “25 μM”, the inhibition at 25 µM was found to be 2%. In addition, the inhibition at 50 µM (50 μM) amounted to 31%. In addition, for the setting “100 μM”, the inhibition at 100 µM was 54%.

Regarding `CN(C)CCCOc1ccc(/C=c2\[nH]c(=O)/c(=C/c3ccc(C(F)(F)F)cc3)[nH]c2=O)cc1` [Compound 5239, (3Z,6Z)-3-(4-(3-Dimethylaminopropoxy)benzylidene)-6-(4-trifluoromethylbenzylidene)-2,5-piperazinedione], the inhibition at 20 µM (20 μM (third part of Table 1)) was found to be 65%. Under “100 μM (third part of Table 1)”, the inhibition at 100 µM worked out at 68%. Besides, the half-maximal inhibitory concentration (IC50) under setting [1] came to 7 µM.

Turning to `CSc1ccc(/C=c2\[nH]c(=O)/c(=C/c3ccc(OCCCN(C)C)cc3)[nH]c2=O)cc1` [Compound 5385, (3Z,6Z)-3-(4-(3-Dimethylaminopropoxy)benzylidene)-6-(4-methylthiobenzylidene)-2,5-piperazinedione], the IC50 under setting [1] came out at 2 µM.

`Cc1cccc(/C=c2\[nH]c(=O)/c(=C/c3ccc(OCCCN(C)C)cc3)[nH]c2=O)c1` [Compound 5187, (3Z,6Z)-6-(4-(3-Dimethylaminopropoxy)benzylidene)-3-(3-methylbenzylidene)-2,5-piperazinedione]: the inhibition at 20 µM (20 μM (third part of Table 1)) amounted to 10%. The inhibition at 100 µM (100 μM (third part of Table 1)) amounted to 58%. The IC50 under setting [1] worked out at 100 µM.

In the case of `COc1ccc(/C=c2\[nH]c(=O)/c(=C/c3ccc(OCCN(C)C)cc3)[nH]c2=O)cc1` [Compound 1911], for the setting “6.25 μM”, the inhibition at 6.25 µM is 13%. Also, the inhibition at 12.5 µM (12.5 μM) is 20%. For the setting “25 μM”, the inhibition at 25 µM is 15%. The inhibition at 50 µM (50 μM) was found to be 23%. The inhibition at 100 µM (100 μM) was 38%.

Consider `CN(C)CCCOc1ccc(/C=c2\[nH]c(=O)/c(=C/c3cccc(Cl)c3)[nH]c2=O)cc1` [Compound 5240], for which the Degree of inhibition in PAI chromogenic substrate assay is, setting by setting: under setting [2], 65%; (100 μM (third part of Table 1), 100 µM) 46%. The IC50 under setting [1] was found to be 6.5 µM.

Take `CN(C)Cc1ccc(/C=c2\[nH]c(=O)/c(=C/c3ccccc3)[nH]c2=O)cc1` [Compound 1913, (3Z,6Z)-3-Benzylidene-6-(4-dimethylaminomethylbenzylidene)-2,5-piperazinedione]: the inhibition at 6.25 µM (6.25 μM) came out at 15%. Also, the inhibition at 12.5 µM (12.5 μM) turned out to be 14%. Also, the inhibition at 25 µM (25 μM) stood at 19%. Also, the inhibition at 50 µM (50 μM) came out at 54%. For the setting “100 μM”, the inhibition at 100 µM came out at 71%.

`CN(C)CCCOc1ccc(/C=c2\[nH]c(=O)/c(=C/c3ccc(C#N)cc3)[nH]c2=O)cc1` [Compound 5348]: under “20 μM (third part of Table 1)”, the inhibition at 20 µM stood at 15%.

`CN(C)CCCOc1ccc(/C=c2\[nH]c(=O)/c(=C/c3ccc(C(N)=O)cc3)[nH]c2=O)cc1` [Compound 5254, 4-((3Z,6Z)-6-(4-(3-Dimethylaminopropoxy)benzylidene)-2,5-dioxo-3-piperazinylidene)methylbenzamide] yielded a Degree of inhibition in PAI chromogenic substrate assay under setting [2] of 76%. Also, the inhibition at 100 µM (100 μM (third part of Table 1)) is 79%. Under setting [1], the IC50 came out at 35 µM.
